Results published in patent US20050002861A1, “Enhanced scintigraphic imaging agents for imaging of infection and inflammation” (priority 2003, published 2005).
Where no end group is shown, it is not given here.

Tested on: muscle tissue infected by E. coli
Test: E. coli rabbit infection model: infection uptake and biodistribution of Tc-99m PGC's
Format: in vivo, New Zealand White (NZW) rabbits
Conditions: only some lysines replaced by arginine; compared with Tc-99m P1827H
Description: In yet another aspect of the present invention, the compositions of the invention are capable of achieving a favorable biodistribution that is characterized by a specific accumulation at the site to be imaged, e.g. in an infected muscle, and at the same time a low concentration in uninfected areas, such as normal muscle or blood. The biodistribution of the radiolabeled compositions of the invention may be expressed by means of an image contrast ratio. The image contrast ratio can be determined as the ratio Imax(infected muscle)/Imax(control muscle), hereinafter referred to as Imax:C, i.e., the maximum radioactivity accumulated in an infected muscle sample versus the maximum radioactivity accumulated in a control, i.e., uninfected, muscle sample. The radioactivity is measured as % of injected dose per gram of tissue/blood, i.e., % ID/g. For the determination of Imax values (and Iavg values; see below), the tissue or blood samples are divided into six parts of equal size/weight and the radioactivity in each of the six samples is counted. The sample with the highest radioactivity is used for the Imax value (the average of all six samples was used for Iavg). Imax (and Iavg) values are expressed as % ID/g. […]

Row | Substance | improvement over Tc-99m P1827H
1 | Ac-RRRRRCGCGGPLYKKIIKKLLES (cysteine pairing not given here) [P1828] | no significant improvement
2 | Ac-KKKKKCGCGGPLYRRIIRRLLES (cysteine pairing not given here) [P1829] | no significant improvement
